System: headache during an acute migraine attack
Test: Intensity of the headache (visual analogue scale 0 to 10) during acute migraine attacks in one migraine patient after intake of the substance(s)
Assay type: in vivo, human
Method: During the course of the trial, the patient had 17 recorded acute migraine attacks which were treated by either one of the following nine treatment regimes: • 1. 13 g flavoured mix of β-hydroxbutyrate (βHB) mineral salts termed “MigraKet” (a ketone body) • 2. 500 mg acetylsalicylic acid (a simple analgesic) • 3. 400 mg ibuprofen (a simple analgesic) • 4. 13 g MigraKet+500 mg acetylsalicylic acid (combination of a ketone body and a simple analgesic) • 5. 13 g MigraKet+400 mg ibuprofen (combination of a ketone body and a simple analgesic) • 6. 2.5 mg frovatriptan (a triptan) • 7. 13 g MigraKet+2.5 mg frovatriptan (combination of a ketone body and a triptan) • 8. 9 mg melatonin • 9. 13 g MigraKet+9 mg melatonin (combination of a ketone body and an antioxidant such as melatonin) The “MigraKet” consisted of:
10g of a sodium, potassium, magnesium and calcium D-βHB mineral mix in a 1:1:2:2 ratio, and 3g of flavour (malic acid and natural lemon and lime flavour sweetend by stevia), dissolved in 0.51 of still water.
The intensity of the headache (pain) was recorded at the time of intake of the substance(s) (0h), and at five subsequent time-points during the course of one day (2h, 4 h, 8h, 12 h, 24h after substance intake). The intensity of the headache (pain) was categorized on a visual analogue scale from 0 (“no pain”) to 10 (“worst pain imaginable”). […]

Compound	time for which the headache was eliminated (after intake, melatonin with βHB: in 1 out of 2 instances, b14: taken when intensity about 0 to about 4)	effect on the headache in words (over the course of 24 hours)
CN[C@@H]1CCc2[nH]c3ccc(C(N)=O)cc3c2C1 [Frovatriptan, frovatriptan]	less than 12 h	–
COc1ccc2[nH]cc(CCNC(C)=O)c2c1 [Melatonin, N-[2-(5-Methoxyindol-3-yl)ethyl]acetamid]	–	did not ameliorate the headache

Source: patent publication US20250275986A1, “COMBINATION OF A KETONE BODY OR KETOGENIC COMPOUND WITH AN ANALGESIC OR ANTIOXIDANT” (KETOSWISS AG, priority 2021, published 2025)
